Consider 33 compounds from patent USRE30633E, “3-Lower alkylcarbamylsulfonamido-4-phenylaminopyridines, n-oxides, derivatives thereof and pharmaceutical compositions containing same” (A. Christiaens Societe Anonyme, priority 1974, dated 1981).

One assay relates to paw of rats. Put plainly: Pharmacological test for anti-inflammatory properties (carrageenan rat paw swelling). As to conditions: oral 1 hour before carrageenan (0.05 ml of 1%), swelling 4 hours after injection by plethysmography, dose not given. The assay is classed as in vivo. Here is the method: 1. Pharmacological test for anti-inflammatory properties.
The compounds to be tested are given as freshly prepared solutions or suspensions by oral route 1 hour before injecting the paw of rats with carrageenan which is a known inflammatory agent.
The inflammatory agent (carrageenan) either in solution or suspension is then injected into the plantar tissue of the right hind paw of each rat, the left paw remaining untreated and serving as control. Each animal receives, for example, 0.05 ml of an aqueous solution containing 1% by weight of carrageenan and 0.9% of sodium chloride.
4 hours after the injection of the inflammatory agent, the importance of swelling is determined by plethysmography and is expressed as a percent of the volume of the control paw.
The anti-inflammatory effect expressed as a percentage of inhibition is obtained by comparison between rats treated with the anti-inflammatory compound and a control group of rats.
On the technique in general: Carrageenan injected into the paw causes an acute inflammation.

Another assay relates to rats. Nature of the assay: Pharmacological test for diuretic properties (urine volume). Format: in vivo. As to conditions: 50 mg/kg gastric gavage, 25 ml/kg saline s.c., urine collected 4 hours, ml/kg of body weight. Here is the method: 2. Pharmacological tests for diuretic properties Lots of 3 rats weighting 250-300 g have been constituted at random, each of them being submitted to the same treatment. The compound to be tested was administered by .[.gastric gavage at a dose of 50 ml/kg as a solution or a.]. .Iadd.gastric gavage at a dose of 50 mg/kg as a solution or a .[…].suspension in water containing 0.45% of methylcellulose (which is an inert mucilaginous substance). Control animals received only distilled water as a placebo. At the same time, all the animals received 25 ml/kg of physiological saline by subcutaneous injection. The rats were then placed in metabolic cages, each cage containing 3 animals receiving the same treatment. The urines have been collected during 4 hours. […] The diuresis is expressed in ml/kg of body weight.

With `CC(C)NC(=O)NS(=O)(=O)c1cnccc1Nc1cccc(C(F)(F)F)c1` [JDL 414, 3-isopropylcarbamylsulfonamido-4-(3'-trifluoromethyl)-phenylaminopyridine], in the assay on paw of rats, the “% inhibition of acute oedema” value is 75.2%. In the assay with rats, this compound yielded a Diuresis of 82.9 mL/kg.

Regarding `CNC(=O)NS(=O)(=O)c1cnccc1Nc1ccc(Cl)cc1` [JDL 415, 3-methylcarbamylsulfonamido-4-(4'-chloro)-phenylaminopyridine], in the assay with paw of rats, the “% inhibition of acute oedema” value is on record as 75.2%. The same compound had a Diuresis in the assay with rats of 47.0 mL/kg.

For `CCNC(=O)NS(=O)(=O)c1cnccc1Nc1ccc(Cl)cc1` [JDL 416, 3-ethylcarbamylsulfonamido-4-(4'-chloro)-phenylaminopyridine], the “% inhibition of acute oedema” value in the assay on paw of rats is 85.6%. The compound further had a Diuresis with rats of 52.8 mL/kg.

In the case of `CCCNC(=O)NS(=O)(=O)c1cnccc1Nc1ccc(Cl)cc1` [JDL 417, 3-propylcarbamylsulfonamido-4-(4'-chloro)-phenylaminopyridine], in the assay with paw of rats, the “% inhibition of acute oedema” value turned out to be 72.8%. Further, the Diuresis with rats is 58.3 mL/kg.

In the case of `CCNC(=S)NS(=O)(=O)c1cnccc1Nc1cccc(C(F)(F)F)c1` [JDL 420, 3-ethylthiocarbamylsulfonamido-4-(3'trifluoromethyl)-phenylaminopyridine], the “% inhibition of acute oedema” value with paw of rats was found to be 52.8%. This compound also registered a Diuresis in the assay with rats of 65.0 mL/kg.

As to `CC(C)NC(=O)NS(=O)(=O)c1cnccc1Nc1ccccc1Cl` [JDL 421, 3-isopropylcarbamylsulfonamido-4-(2'-chloro)-phenylaminopyridine], in the assay with paw of rats, the “% inhibition of acute oedema” value is given as 88.8%. Also, in the assay on rats, the Diuresis turned out to be 72.0 mL/kg.

With `CCCCNC(=O)NS(=O)(=O)c1cnccc1Nc1ccccc1Cl` [JDL 422, 3-butylcarbamylsulfonamido-4(2'-chloro)-phenylaminopyridine], the “% inhibition of acute oedema” value with paw of rats was 46.4%. The compound also returned a Diuresis with rats of 56.7 mL/kg.

With `CC(C)NC(=O)NS(=O)(=O)c1cnccc1Nc1ccc(Cl)cc1` [JDL 423, 3-isopropylcarbamylsulfonamido-4-(4'-chloro)-phenylaminopyridine], in the assay on paw of rats, the “% inhibition of acute oedema” value worked out at 64.0%. This compound had a Diuresis in the assay on rats of 68.7 mL/kg.

Take `CCCCNC(=O)NS(=O)(=O)c1cnccc1Nc1ccc(Cl)cc1` [JDL 424, 3-butylcarbamylsulfonamido-4-(4'-chloro)-phenylaminopyridine]: the “% inhibition of acute oedema” value in the assay with paw of rats is reported as 50.4%. The compound also returned a Diuresis in the assay on rats of 21.0 mL/kg.

Consider `CC(C)(C)NC(=O)NS(=O)(=O)c1cnccc1Nc1ccc(Cl)cc1` [JDL 425, 3-tertiobutylcarbamylsulfonamido-4-(4'-chloro)-phenylaminopyridine], for which the “% inhibition of acute oedema” value in the assay on paw of rats was 42.4%. Moreover, the Diuresis with rats came to 37.7 mL/kg.

Regarding `O=C(NC1CCCCC1)NS(=O)(=O)c1cnccc1Nc1ccc(Cl)cc1` [JDL 426, 3-cyclohexylcarbamylsulfonamido-4-(4'-chloro)-phenylaminopyridine], the “% inhibition of acute oedema” value in the assay on paw of rats is reported as 73.6%. The same compound had a Diuresis in the assay with rats of 22.0 mL/kg.

As for `CC(C)(C)NC(=O)NS(=O)(=O)c1cnccc1Nc1ccccc1Cl` [JDL 427, 3-tertiobutylcarbamylsulfonamido-4-(2'-chloro)-phenylaminopyridine], the “% inhibition of acute oedema” value in the assay with paw of rats came to 53.6%. The Diuresis with rats is 11.4 mL/kg.

With `O=C(NC1CCCCC1)NS(=O)(=O)c1cnccc1Nc1ccccc1Cl` [JDL 428, 3-cyclohexylcarbamylsulfonamido-4-(2'-chloro)-phenylamionpyridine], the “% inhibition of acute oedema” value in the assay with paw of rats is given as 17.6%. Further, in the assay with rats, the Diuresis stood at 15.6 mL/kg.

Turning to `CCNC(=O)NS(=O)(=O)c1cnccc1Nc1cccc(C)c1` [JDL 463, 3-ethylcarbamylsulfonamido-4-(3'-methyl)-phenylaminopyridine], the “% inhibition of acute oedema” value in the assay on paw of rats was determined as 73.6%. Besides, in the assay on rats, the Diuresis turned out to be 76.1 mL/kg.

As for `Cc1cccc(Nc2ccncc2S(=O)(=O)NC(=O)NC(C)C)c1` [JDL 464, 3-isopropylcarbamylsulfonamido-4-(3'-methyl)-phenylaminopyridine], the “% inhibition of acute oedema” value with paw of rats is recorded as 76.8%. The compound also showed a Diuresis in the assay with rats of 81.6 mL/kg.

For `CCNC(=O)NS(=O)(=O)c1cnccc1Nc1cccc(F)c1` [JDL 465, 3-ethylcarbamylsulfonamido-4-(3'-fluoro)-phenylaminopyridine], the “% inhibition of acute oedema” value in the assay with paw of rats is listed as 71.2%. The compound also came in with a Diuresis with rats of 76.7 mL/kg.

On to `CC(C)NC(=O)NS(=O)(=O)c1cnccc1Nc1cccc(F)c1` [JDL 466, 3-isopropylcarbamylsulfonamido-4-(3'-fluoro)-phenylaminopyridine], for which, in the assay on paw of rats, the “% inhibition of acute oedema” value came to 68.0%. The Diuresis with rats is 70.7 mL/kg.

For the compound `CCNC(=O)NS(=O)(=O)c1cnccc1Nc1cccc(Br)c1` [JDL 467, 3-ethylcarbamylsulfonamido-4-(3'-bromo)-phenylaminopyridine], the “% inhibition of acute oedema” value in the assay with paw of rats amounted to 69.6%. The Diuresis with rats was 65.8 mL/kg.

For `CC(C)NC(=O)NS(=O)(=O)c1cnccc1Nc1cccc(Br)c1` [JDL 468, 3-isopropylcarbamylsulfonamido-4-(3'-bromo)-phenylaminopyridine], the “% inhibition of acute oedema” value in the assay on paw of rats is on record as 72.0%. Further, in the assay on rats, the Diuresis stood at 77.2 mL/kg.

Turning to `CCNC(=O)NS(=O)(=O)c1cnccc1Nc1cccc(OC)c1` [JDL 469, 3-ethylcarbamylsulfonamido-4-(3'-methoxy)-phenylaminopyridine], in the assay on paw of rats, the “% inhibition of acute oedema” value came to 60.8%. This compound also gave a Diuresis in the assay with rats of 46.9 mL/kg.

Regarding `COc1cccc(Nc2ccncc2S(=O)(=O)NC(=O)NC(C)C)c1` [JDL 470, 3-isopropylcarbamylsulfonamido-4-(3'-methoxy)-phenylaminopyridine], in the assay with paw of rats, the “% inhibition of acute oedema” value is on record as 83.2%. The same compound had a Diuresis in the assay with rats of 74.9 mL/kg.

As to `CCNC(=O)NS(=O)(=O)c1cnccc1NCc1ccco1` [JDL 471, 3-ethylcarbamylsulfonamido-4-methylfurylaminopyridine], the “% inhibition of acute oedema” value with paw of rats was found to be 70.4%. In the assay on rats, the Diuresis was 37.7 mL/kg.

On to `CC(C)NC(=O)NS(=O)(=O)c1cnccc1NCc1ccco1` [JDL 472, 3-isopropylcarbamylsulfonamido-4-methylfurylaminopyridine], for which the “% inhibition of acute oedema” value in the assay on paw of rats was 54.4%. The compound also displayed a Diuresis with rats of 69.6 mL/kg.

As to `CCNC(=O)NS(=O)(=O)c1cnccc1Nc1cc(Cl)cc(Cl)c1` [JDL 473, 3-ethylcarbamylsulfonamido-4-(3',5'-dichloro)-phenylaminopyridine], the “% inhibition of acute oedema” value in the assay with paw of rats is recorded as 41.6%. In addition, the Diuresis in the assay on rats is 24.0 mL/kg.

On to `CCNC(=O)NS(=O)(=O)c1cnccc1Nc1ccc(Cl)c(Cl)c1` [JDL 475, 3-ethylcarbamylsulfonamido-4-(3',4'-dichloro)-phenylaminopyridine], for which, in the assay with paw of rats, the “% inhibition of acute oedema” value is reported as 79.2%. The compound further had a Diuresis in the assay on rats of 34.3 mL/kg.

`CC(C)NC(=O)NS(=O)(=O)c1cnccc1Nc1ccc(Cl)c(Cl)c1` [JDL 476, 3-isopropylcarbamylsulfonamido-4-(3',4'-dichloro)-phenylaminopyridine]: in the assay on paw of rats, the “% inhibition of acute oedema” value was 92.0%. In the assay on rats, the Diuresis was determined as 42.1 mL/kg.

For `CNC(=S)NS(=O)(=O)c1cnccc1Nc1cccc(Cl)c1` [JDL 477, 3-methylthiocarbamylsulfonamido-4-(3'-chloro)-phenylaminopyridine], the “% inhibition of acute oedema” value in the assay with paw of rats turned out to be 61.6%. Also, the Diuresis with rats was 43.6 mL/kg.

In the case of `CCNC(=S)NS(=O)(=O)c1cnccc1Nc1cccc(Cl)c1` [JDL 478, 3-ethylthiocarbamylsulfonamido-4-(3'-chloro)-phenylaminopyridine], the “% inhibition of acute oedema” value in the assay on paw of rats is given as 29.6%. In addition, the Diuresis in the assay with rats was 29.7 mL/kg.

As to `CC(C)NC(=S)NS(=O)(=O)c1cnccc1Nc1cccc(Cl)c1` [JDL 479, 3-isopropylthiocarbamylsulfonamido-4-(3'-chloro)-phenylaminopyridine], in the assay with paw of rats, the “% inhibition of acute oedema” value worked out at 45.6%. This compound also returned a Diuresis with rats of 44.3 mL/kg.

As to `C=CCNC(=S)NS(=O)(=O)c1cnccc1Nc1cccc(Cl)c1` [JDL 480, 3-allyl-thiocarbamyl-sulfonamido-4-(3'-chloro)-phenylaminopyridine], the “% inhibition of acute oedema” value in the assay with paw of rats stood at 65.6%. In the assay with rats, the Diuresis came to 26.4 mL/kg.

As to `CC(C)NC(=O)NS(=O)(=O)c1cnccc1NC(C)C` [JDL 482, 3-isopropylcarbamylsulfonamido-4-isopropylaminopyridine], in the assay on paw of rats, the “% inhibition of acute oedema” value amounted to 0%. The same compound registered a Diuresis with rats of 25.3 mL/kg.

As for `CCN(CC)c1ccncc1S(=O)(=O)NC(=O)NC(C)C` [JDL 483, 3-isopropylcarbamylsulfonamido-4-diethylaminopyridine], the “% inhibition of acute oedema” value in the assay on paw of rats was determined as 0%. This compound also gave a Diuresis in the assay with rats of 12.4 mL/kg.

In the case of `CCN(CC)c1ccncc1S(N)(=O)=O` [JDL 484, 3-sulfonamido-4-diethylaminopyridine], in the assay with paw of rats, the “% inhibition of acute oedema” value worked out at 13.6%. This compound came in with a Diuresis in the assay on rats of 9.0 mL/kg.
